Non-standard residues stand in square brackets, D forms with d. Residues, ends and D or L forms follow the SMILES beside them. *: point of attachment. X1 = Cn1c(Br)c(Br)c(Br)c1C(=O)*; NMeL = CN[C@@H](CC(C)C)C(=O)O
Key:
MDA-MB-231 = experiment: Cytotoxic activity against breast tumor cell line MDA-MB-231; assay type: cell-based; details: MDA-MB-231 (breast), human tumor cell line
[1] = tested on: interaction between the programmed cell death protein PD-1 and its natural ligand PDL1; experiment: Cell-based assay of PD-1/PDL1 interaction; details: for %Inhibition at 1 × 10^−5 M (PD-1): final readout dependent on the interaction between PD-1 and PDL1; for impairment of PD-1/PDL1 interaction: final readout dependent on the interaction between the two proteins
PSN-1 = experiment: Cytotoxic activity against pancreas tumor cell line PSN-1; assay type: cell-based; details: PSN-1 (pancreas), human tumor cell line
four cancer cell lines [2] = experiment: Cytotoxic activity, four cancer cell lines (summary); assay type: cell-based, human; details: four cancer cell lines: A-549, HT-29, MDA-MB-231, PSN-1
HT-29 = experiment: Cytotoxic activity against colon tumor cell line HT-29; assay type: cell-based; details: HT-29 (colon), human tumor cell line
A-549 = experiment: Cytotoxic activity against lung tumor cell line A-549; assay type: cell-based; details: A-549 (lung), human tumor cell line
topoisomerase I = experiment: Topoisomerase I inhibition; assay type: biochemical
four cancer cell lines [3] = details: cited for comparison with 1 and 2; cited from earlier work
Method: In summary, two new peptides bearing unprecedented halogenated moieties, haloirciniamide A (1) and seribunamide A (2), were isolated from a marine sponge belonging to the Irnicia genus, which was selected for further studies. The sample was collected around the Thousand Islands (Indonesia) by the Pharmamar expedition team in collaboration with the Research Center for Oceanography, Indonesian Institute of Sciences (RCO-LIPI). The planar structures of the novel compounds were determined by a combination of extensive NMR and HPLC-MS experiments. The absolute configuration was achieved by Marfey’s ...

| Compound | GI50 (MDA-MB-231) [µM] | %Inhibition at 1 × 10^−5 M (PD-1) [1] [%] | impairment of PD-1/PDL1 interaction [1] | GI50 (PSN-1) [µM] | cytotoxic activity (four cancer cell lines [2]) | GI50 (HT-29) [µM] | GI50 (A-549) [µM] | %Inhibition at 1 × 10^−5 M (Top-I) (topoisomerase I; 1 × 10^−5 M) [%] | inhibition of topoisomerase I (topoisomerase I; 1.0 × 10^−5 M) | cytotoxic activity (words, comparison compound cyclocinamide B) (four cancer cell lines [3]) | cytotoxic activity (words, comparison compound gunungamide A) (four cancer cell lines [3]) |
| --- | --- | --- | --- | --- | --- | --- | --- | --- | --- | --- | --- |
| CN1C(=O)C[C@H](C(N)=O)NC(=O)[C@@H](O)CNC(=O)[C@H](CNC(=O)c2cc(Br)c(Br)[nH]2)NC(=O)[C@H](CN)NC(=O)C1Cc1cnc(Cl)[nH]1 (stereo partly drawn) [Compound 1, haloirciniamide A] | > 12 | 0.3 | unable to impair the interaction | > 12 | not observed | > 12 | > 12 | 3 | no inhibition of the enzyme |  |  |
| CC[C@H](C)[C@H](NC(=O)c1c(Br)c(Br)c(Br)n1C)C(=O)N(C)[C@@H](CC(C)C)C(=O)N1CCC[C@H]1C(=O)N[C@@H](CCC(N)=O)C(=O)O [Compound 2, seribunamide A] (X1-I[NMeL]PQ-OH) | > 12 | −3.5 | unable to impair the interaction | > 12 | not observed | > 12 | > 12 |  |  |  |  |
| cyclocinamide B |  |  |  |  |  |  |  |  |  | not observed |  |
| gunungamide A |  |  |  |  |  |  |  |  |  |  | not observed |

From PMC7460063, “Unique Polyhalogenated Peptides from the Marine Sponge Ircinia sp” (Marine Drugs, 2020)
